# Measured values published in US20260042731A1, “(2,4-DICHLOROPHENOXY)ACETIC ACID ANALOGS” (CORTEVA AGRISCIENCE LLC, priority 2022, published 2026).
# Read-outs that look alike come from different tables or passages of the source.
# Legend:
# [1] = tested on: Abutilon theophrasti (ABUTH), velvetleaf; test: Postemergence herbicide evaluation, growth of Abutilon theophrasti (ABUTH); assay type: in vivo; conditions: Abutilon theophrasti, post-emergence, read-out: AVE. ABUTH
# [2] = tested on: Ambrosia artemisiifolia (AMBEL), common ragweed; test: Postemergence herbicide evaluation, growth of Ambrosia artemisiifolia (AMBEL); assay type: in vivo; conditions: Ambrosia artemisiifolia, post-emergence, read-out: AVE. AMBEL
# [3] = tested on: Chenopodium album (CHEAL), common lambsquarters; test: Postemergence herbicide evaluation, growth of Chenopodium album (CHEAL); assay type: in vivo; conditions: Chenopodium album, post-emergence, read-out: Ave. CHEAL
# [4] = tested on: glyphosate resistant Conyza canadensis (L.) (ERICA), horseweed; test: Postemergence herbicide evaluation, growth of Conyza canadensis (ERICA); assay type: in vivo; conditions: Erigeron canadensis, post-emergence, read-out: Ave. ERICA
# [5] = Volatility of compounds measured by thermogravimetric analysis (TGA); assay type: physicochemical
# [6] = tested on: weeds (ABUTH, AMATA, AMBEL, CHEAL, ERICA); test: Postemergence herbicide evaluation, overall average % weed control across ABUTH, AMATA, AMBEL, CHEAL, ERICA; assay type: in vivo; conditions: post-emergence, read-out: Overall Ave % Weed Control
# [7] = tested on: Amaranthus rudis (AMATA), tall water hemp; test: Postemergence herbicide evaluation, growth of Amaranthus rudis (AMATA); assay type: in vivo; conditions: Amaranthus tuberculatus, post-emergence, read-out: Ave. AMATA
# [8] = 168 h, 280 g ae/ha, 7 DAA, percent reduction in plant size relative to untreated control
# [9] = 168 h, 560 g ae/ha, 7 DAA, percent reduction in plant size relative to untreated control
# [10] = 336 h, 280 g ae/ha, 14 DAA, percent reduction in plant size relative to untreated control
# [11] = 336 h, 560 g ae/ha, 14 DAA, percent reduction in plant size relative to untreated control
# [12] = 504 h, 280 g ae/ha, 21 DAA, percent reduction in plant size relative to untreated control
# [13] = 504 h, 560 g ae/ha, 21 DAA, percent reduction in plant size relative to untreated control
# [14] = 168 h, 280 g ae/ha, 7 DAA, average over the five weeds
# [15] = 168 h, 560 g ae/ha, 7 DAA, average over the five weeds
# [16] = 336 h, 280 g ae/ha, 14 DAA, average over the five weeds
# [17] = 336 h, 560 g ae/ha, 14 DAA, average over the five weeds
# [18] = 504 h, 280 g ae/ha, 21 DAA, average over the five weeds
# [19] = 504 h, 560 g ae/ha, 21 DAA, average over the five weeds
structure (smiles),measurement,setting,value
"O=C(Cc1ccccc1)NOC(=O)COc1ccc(Cl)cc1Cl [Compound A13, N-(2-(2,4-dichlorophenoxy)acetoxy)-2-phenylacetamide]",pest or weed control at 280 g/ha,[1]; [8],68%
same,pest or weed control at 560 g/ha,[1]; [9],80%
same,pest or weed control at 280 g/ha,[1]; [10],70%
same,pest or weed control at 560 g/ha,[1]; [11],85%
same,pest or weed control at 280 g/ha,[1]; [12],75%
same,pest or weed control at 560 g/ha,[1]; [13],93%
same,pest or weed control at 280 g/ha,[2]; [8],65%
same,pest or weed control at 560 g/ha,[2]; [9],70%
same,pest or weed control at 280 g/ha,[2]; [10],85%
same,pest or weed control at 560 g/ha,[2]; [11],94%
same,pest or weed control at 280 g/ha,[2]; [12],90%
same,pest or weed control at 560 g/ha,[2]; [13],97%
same,pest or weed control at 280 g/ha,[3]; [8],68%
same,pest or weed control at 560 g/ha,[3]; [9],65%
same,pest or weed control at 280 g/ha,[3]; [10],68%
same,pest or weed control at 560 g/ha,[3]; [11],78%
same,pest or weed control at 280 g/ha,[3]; [12],73%
same,pest or weed control at 560 g/ha,[3]; [13],91%
same,pest or weed control at 280 g/ha,[4]; [8],60%
same,pest or weed control at 560 g/ha,[4]; [9],65%
same,pest or weed control at 280 g/ha,[4]; [10],78%
same,pest or weed control at 560 g/ha,[4]; [11],97%
same,pest or weed control at 280 g/ha,[4]; [12],83%
same,pest or weed control at 560 g/ha,[4]; [13],99%
same,"TGA Data (rate of weight loss, volatility)",[5],1.2 µg/min
same,pest or weed control at 280 g/ha,[6]; [14],67%
same,pest or weed control at 560 g/ha,[6]; [15],70%
same,pest or weed control at 280 g/ha,[6]; [16],76%
same,pest or weed control at 560 g/ha,[6]; [17],85%
same,pest or weed control at 280 g/ha,[6]; [18],82%
same,pest or weed control at 560 g/ha,[6]; [19],90%
same,pest or weed control at 280 g/ha,[7]; [8],75%
same,pest or weed control at 560 g/ha,[7]; [9],70%
same,pest or weed control at 280 g/ha,[7]; [10],80%
same,pest or weed control at 560 g/ha,[7]; [11],74%
same,pest or weed control at 280 g/ha,[7]; [12],91%
same,pest or weed control at 560 g/ha,[7]; [13],70%
"CS/C(C)=N\OC(=O)COc1ccc(Cl)cc1Cl [Compound A10, Methyl N-2-(2,4-dichlorophenoxy)acetoxyethanimidothioate]",pest or weed control at 280 g/ha,[1]; [8],83%
same,pest or weed control at 560 g/ha,[1]; [9],88%
same,pest or weed control at 280 g/ha,[1]; [10],90%
same,pest or weed control at 560 g/ha,[1]; [11],92%
same,pest or weed control at 280 g/ha,[1]; [12],98%
same,pest or weed control at 560 g/ha,[1]; [13],94%
same,pest or weed control at 280 g/ha,[2]; [8],70%
same,pest or weed control at 560 g/ha,[2]; [9],75%
same,pest or weed control at 280 g/ha,[2]; [10],85%
same,pest or weed control at 560 g/ha,[2]; [11],92%
same,pest or weed control at 280 g/ha,[2]; [12],100%
same,pest or weed control at 560 g/ha,[2]; [13],96%
same,pest or weed control at 280 g/ha,[3]; [8],65%
same,pest or weed control at 560 g/ha,[3]; [9],70%
same,pest or weed control at 280 g/ha,[3]; [10],75%
same,pest or weed control at 560 g/ha,[3]; [11],83%
same,pest or weed control at 280 g/ha,[3]; [12],83%
same,pest or weed control at 560 g/ha,[3]; [13],53%
same,pest or weed control at 280 g/ha,[4]; [8],63%
same,pest or weed control at 560 g/ha,[4]; [9],68%
same,pest or weed control at 280 g/ha,[4]; [10],85%
same,pest or weed control at 560 g/ha,[4]; [11],83%
same,pest or weed control at 280 g/ha,[4]; [12],93%
same,pest or weed control at 560 g/ha,[4]; [13],94%
same,"TGA Data (rate of weight loss, volatility)",[5],0.6 µg/min
same,pest or weed control at 280 g/ha,[6]; [14],72%
same,pest or weed control at 560 g/ha,[6]; [15],76%
same,pest or weed control at 280 g/ha,[6]; [16],83%
same,pest or weed control at 560 g/ha,[6]; [17],84%
same,pest or weed control at 280 g/ha,[6]; [18],90%
same,pest or weed control at 560 g/ha,[6]; [19],84%
same,pest or weed control at 280 g/ha,[7]; [8],80%
same,pest or weed control at 560 g/ha,[7]; [9],78%
same,pest or weed control at 280 g/ha,[7]; [10],80%
same,pest or weed control at 560 g/ha,[7]; [11],73%
same,pest or weed control at 280 g/ha,[7]; [12],78%
same,pest or weed control at 560 g/ha,[7]; [13],83%
"O=C(COc1ccc(Cl)cc1Cl)OCc1ccccc1 [Compound E4, Benzyl 2-(2,4-dichlorophenoxy)acetate]",pest or weed control at 280 g/ha,[1]; 168 h,90%
same,pest or weed control at 560 g/ha,[1]; 168 h,90%
same,pest or weed control at 280 g/ha,[1]; 336 h,97%
same,pest or weed control at 560 g/ha,[1]; 336 h,97%
same,pest or weed control at 280 g/ha,[1]; 504 h,99%
same,pest or weed control at 560 g/ha,[1]; 504 h,98%
same,pest or weed control at 280 g/ha,[2]; 168 h,68%
same,pest or weed control at 560 g/ha,[2]; 168 h,73%
same,pest or weed control at 280 g/ha,[2]; 336 h,89%
same,pest or weed control at 560 g/ha,[2]; 336 h,97%
same,pest or weed control at 280 g/ha,[2]; 504 h,99%
same,pest or weed control at 560 g/ha,[2]; 504 h,99%
same,pest or weed control at 280 g/ha,[3]; 168 h,73%
same,pest or weed control at 560 g/ha,[3]; 168 h,70%
same,pest or weed control at 280 g/ha,[3]; 336 h,83%
same,pest or weed control at 560 g/ha,[3]; 336 h,73%
same,pest or weed control at 280 g/ha,[3]; 504 h,88%
same,pest or weed control at 560 g/ha,[3]; 504 h,75%
same,pest or weed control at 280 g/ha,[4]; 168 h,70%
same,pest or weed control at 560 g/ha,[4]; 168 h,75%
same,pest or weed control at 280 g/ha,[4]; 336 h,88%
same,pest or weed control at 560 g/ha,[4]; 336 h,93%
same,pest or weed control at 280 g/ha,[4]; 504 h,95%
same,pest or weed control at 560 g/ha,[4]; 504 h,99%
same,"TGA Data (rate of weight loss, volatility)",[5],0.4 µg/min
same,pest or weed control at 280 g/ha,[6]; 168 h,74%
same,pest or weed control at 560 g/ha,[6]; 168 h,77%
same,pest or weed control at 280 g/ha,[6]; 336 h,84%
same,pest or weed control at 560 g/ha,[6]; 336 h,90%
same,pest or weed control at 280 g/ha,[6]; 504 h,90%
same,pest or weed control at 560 g/ha,[6]; 504 h,92%
same,pest or weed control at 280 g/ha,[7]; 168 h,68%
same,pest or weed control at 560 g/ha,[7]; 168 h,78%
same,pest or weed control at 280 g/ha,[7]; 336 h,65%
same,pest or weed control at 560 g/ha,[7]; 336 h,93%
same,pest or weed control at 280 g/ha,[7]; 504 h,70%
same,pest or weed control at 560 g/ha,[7]; 504 h,91%
